{"source": "patent US20240010993A1", "about": "“CELL CULTURE CHAMBER AND METHOD FOR CULTURING CELLS AND FOR THE IN VITRO PRODUCTION OF CELL LAYERS AND ORGAN MODELS” (Dynamic42 GmbH, priority 2021, published 2024)", "key": {"[1]": {"system": "macrophages in co-culture with liver sinusoidal endothelial cells and hepatocytes", "experiment": "LPS addition to liver model to check activatability of immune cells (cytokine release)", "type": "cell-based", "conditions": "LPS added at the tenth and fourteenth day of culture; FIG. 8", "experimental": "In addition, lipopolysaccharide (LPS) was added to some samples at the tenth day and the fourteenth day to check the activatability of immune cells (macrophages) contained in the liver model, and the respective reactions were shown. The addition of LPS as a so-called pyrogenic substance represents a test for endotoxins that is customary in the art. Immune cells such as macrophages respond to this stimulus with increased release of cytokines. […] It can be deduced from this that macrophages in co-culture with the investigated liver sinusoidal endothelial cells and hepatocytes were capable of reacting with an immune response to an endotoxin even after 10 or after 14 days. This is important for being able to detect immune cell-mediated side effects of drugs."}, "[2]": {"experiment": "adsorption effect of PBT in cell culture chambers (active substance adsorption)", "type": "physicochemical", "conditions": "after 24 hours; both embodiments Chip PBT-BC1 and Chip PBT-BC2; control stock solution propiconazole 100 μM, troglitazone 64 μM", "experimental": "After an incubation period of 24 h, at least 80% of the starting concentration of the propiconazole or the troglitazone is detectable in the culture medium (cf. FIG. 3A, FIG. 3B).\nFIGS. 3A and 3B show results of experiments on the adsorption effect of PBT in two cell culture chambers 1 according to the disclosure of different designs. The designation, “Chip PBT-BC1,” denotes a first embodiment of the cell culture chamber 1, and “Chip PBT-BC2” a second embodiment. The first embodiment has a width B of 34.6 mm, a depth T of 6.56 mm, and a height H of 0.7 mm for the first channel 3. The second channel 4 has the dimensions of 44.8 mm, 3.6 mm, and 0.8 mm (W/D/H). The corresponding dimensions for the second embodiment, “Chip PBT-BC2,” of the cell culture chamber 1 are 34.6 mm, 8.06 mm, and 0.7 mm (W/D/H) for the first channel 3 and 49.4 mm, 5.61 mm, and 1.0 mm (B/T/H) for the second channel 4.\nIn comparison, a control in the form of a stock solution (100 μM) with propiconazole is given. […] In each case, it can be seen from the two graphics that, in both embodiments of the cell culture chamber 1 according to the disclosure, more than 85% of the propiconazole (FIG. 3A) and more than 80% of the troglitazone (FIG. 3B) in the culture medium 7 could be detected even after 24 hours."}, "[3]": {"conditions": "after 24 hours in PDMS chips; binds irreversibly to PDMS; cited from earlier work"}, "[4]": {"conditions": "cited from earlier work"}}}
{"compound": "lipopolysaccharide [LPS]", "values": [{"measurement": "concentration of IL-1beta after the addition of LPS", "setting": "[1]", "result": "distinct increase"}]}
{"compound": "CCCC1COC(Cn2cncn2)(c2ccc(Cl)cc2Cl)O1", "note": "(stereo not shown) [propiconazole]", "values": [{"measurement": "percentage (RTC - ratio to control) remaining and detectable in the culture medium", "setting": "[2]", "result": "more than 85%"}, {"measurement": "detected fraction of the starting concentration in the culture medium", "setting": "[3]", "result": "less than 30%"}]}
{"compound": "Cc1c(C)c2c(c(C)c1O)CCC(C)(COc1ccc(CC3SC(=O)NC3=O)cc1)O2", "note": "(stereo not shown) [troglitazone]", "values": [{"measurement": "log P", "setting": "[4]", "result": 3.60}]}
